Measurements as given in patent publication US5405857A, “3-substituted 1,2,3,4,-oxatriazole-5-imine compounds, a process for the preparation thereof and a pharmaceutical preparation containing said compounds” (A/S GEA Farmaceutisk Fabrik, priority 1991, dated 1995).

Experiments:
[1] = molecular target: T1, soluble guanylate cyclase (Homo sapiens, UniProt Q02153); experiment: Stimulation of guanylate cyclase from blood platelets (RIA); assay type: biochemical; details: 37° C.
T1 construct: The guanylate cyclase activity in the supernatant after incubation with and without the test substance; endogenous in cells; host or cells: human blood platelets, supernatant of homogenate
T1 sequence (Q02153 1-619): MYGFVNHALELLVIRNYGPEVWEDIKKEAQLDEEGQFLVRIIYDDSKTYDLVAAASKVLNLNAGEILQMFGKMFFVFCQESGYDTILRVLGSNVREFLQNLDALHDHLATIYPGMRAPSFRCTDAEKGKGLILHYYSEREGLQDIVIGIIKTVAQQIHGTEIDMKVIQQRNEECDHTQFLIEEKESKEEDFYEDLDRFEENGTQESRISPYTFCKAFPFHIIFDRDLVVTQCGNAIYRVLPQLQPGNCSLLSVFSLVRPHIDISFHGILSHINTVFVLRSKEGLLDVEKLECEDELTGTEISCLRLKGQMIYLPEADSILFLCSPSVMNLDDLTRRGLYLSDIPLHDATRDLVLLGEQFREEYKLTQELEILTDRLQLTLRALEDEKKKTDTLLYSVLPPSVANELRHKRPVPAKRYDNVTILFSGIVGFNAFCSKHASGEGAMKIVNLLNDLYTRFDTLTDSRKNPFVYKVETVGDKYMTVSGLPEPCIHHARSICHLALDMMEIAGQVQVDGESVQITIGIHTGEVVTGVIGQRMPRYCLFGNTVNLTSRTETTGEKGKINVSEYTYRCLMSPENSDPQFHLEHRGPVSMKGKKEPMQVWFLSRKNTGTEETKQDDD
T1 sequence (Q02108 1-690 partner): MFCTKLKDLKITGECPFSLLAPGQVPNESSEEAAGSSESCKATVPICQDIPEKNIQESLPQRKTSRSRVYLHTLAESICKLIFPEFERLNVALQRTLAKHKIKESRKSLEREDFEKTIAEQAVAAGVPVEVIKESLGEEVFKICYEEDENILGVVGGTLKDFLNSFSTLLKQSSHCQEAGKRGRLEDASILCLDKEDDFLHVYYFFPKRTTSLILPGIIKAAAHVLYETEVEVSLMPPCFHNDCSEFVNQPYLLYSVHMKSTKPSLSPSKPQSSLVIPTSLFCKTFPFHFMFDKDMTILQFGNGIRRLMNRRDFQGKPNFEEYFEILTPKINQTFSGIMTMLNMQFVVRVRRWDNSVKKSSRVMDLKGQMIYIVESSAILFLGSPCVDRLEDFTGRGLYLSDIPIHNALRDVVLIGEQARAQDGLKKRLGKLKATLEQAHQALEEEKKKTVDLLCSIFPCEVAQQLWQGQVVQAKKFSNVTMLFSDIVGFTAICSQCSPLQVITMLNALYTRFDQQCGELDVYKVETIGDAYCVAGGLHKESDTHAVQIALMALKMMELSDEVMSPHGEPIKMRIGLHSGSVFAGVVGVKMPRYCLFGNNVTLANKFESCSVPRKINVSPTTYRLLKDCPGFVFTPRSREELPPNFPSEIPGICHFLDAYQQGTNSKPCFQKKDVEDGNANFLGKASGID

[2] = system: polymorph nuclear leukocytes (PMNs), c-GMP; experiment: Stimulation of c-GMP content in PMNs; assay type: cell-based, human; details: 37° C., 10 minutes
Method: Compounds according to the invention were tested for their ability to increase the content of cyclic guanosine monophosphate (c-GMP), to inhibit the synthesis of the leukotriene B4 (LTB4), and to inhibit the chemotactical movement of polymorph nuclear leukocytes (PMN). The polymorph nuclear leukocytes play a vital part in the cellular part of the inflammation process. At diseases, such as asthma, the mucuos membrane of the respiratory passages is swollen as a result of an inflammation with a significant infiltration of polymorph nuclear leukocytes (PMN's) in particular. Particularly effective substances for the treatment of asthma are such which in addition to relaxing the musculature in the respiratory passages also have an anti-inflammatory effect on the cellular phase of the inflammatory process, that is inhibiting the leukocyte function.
Isolated human PMNs are incubated at 37° C. for 10 minutes, whereafter the content of cyclic guanosine monophosphate (c-GMP) is measured. Further, the synthesis of the LTB4 is determined after stimulation with Ca-ionophore (A23187) and the chemotaxis (controlled movement) towards FMLP (a substance attracting the polymorph nuclear leukocytes, PMNs) is determined.
Three compounds according to the invention and the reference substance SIN-1 were tested for their ability to stimulate the content of cyclic guanosine monophosphate (c-GMP).

Guanylate cyclase activity ([1]; 0.01 μM): 2225 pmole c-GMP/mg prot. × 15 minutes | Guanylate cyclase activity ([1]; 10 μm (so in the source)): 47298 pmole c-GMP/mg prot. × 15 minutes
SMILES: COc1ccc(Cl)cc1-[n+]1noc([NH-])n1 [Example 20]
c-GMP in PMNs ([2]; 1 μM): 175 fmole/10^6 cells | c-GMP in PMNs ([2]; 10 μM): 492 fmole/10^6 cells | c-GMP in PMNs ([2]; 100 μM): 866 fmole/10^6 cells
